Consider 56 compounds from the Deep4Chem optical property database.

The series can be described thus: photoluminescence quantum yield (fraction); solvent given as SMILES.

On to `Nc1ccc(/C=C/c2ccccc2)cc1`, for which the photoluminescence quantum yield came to 0.03 (in CC#N) and 0.03 (in CCCCCC). In the case of `CC1=C(C#Cc2ccccc2)C(C)=[N+]2C1=C(c1ccccc1)c1c(C)c(C#Cc3ccccc3)c(C)n1[B-]2(F)F`, the photoluminescence quantum yield is, setting by setting: (in C1CCOC1) 0.6; (in ClCCl) 0.82.

Regarding `COc1ccc2c(c1)c1cc(OC)ccc1n2-c1cc(Cl)c([C](c2c(Cl)cc(Cl)cc2Cl)c2c(Cl)cc(Cl)cc2Cl)c(Cl)c1`, the photoluminescence quantum yield (in C1CCCCC1) turned out to be 0.006. The compound `CCN(C)c1ccc(C2=C3C(C)=CC(C)=[N+]3[B-](F)(F)n3c(C)cc(C)c32)cc1` yielded a photoluminescence quantum yield (in CO) of 0.44. Under “in Cc1ccccc1”, `CC1=C(c2cccs2)C(C)=[N+]2C1=C(c1ccc(OS(=O)(=O)c3ccc([N+](=O)[O-])cc3[N+](=O)[O-])cc1)c1c(C)c(-c3cccs3)c(C)n1[B-]2(F)F` returned a photoluminescence quantum yield of 0.059.

On to `CCCn1c2cccc3oc4cccc5oc6cccc1c6[c+](c45)c32`, for which the photoluminescence quantum yield runs as follows: (in CC#N) 0.49; (in CO) 0.54; (in ClCCl) 0.59; (in OCC(O)CO) 0.47.

Turning to `COC(=O)[C@H](Cc1ccccc1)Nc1c(C(C)=O)c(=O)oc2cc(N(C)C)ccc12`, the photoluminescence quantum yield (in ClCCl) is 0.0043.

In turn, `c1ccc(-c2nc(-c3ccccc3)nc(-c3ccc(-n4c5ccccc5c5cc6c7ccccc7n7c8ccccc8c(c54)c67)cc3)n2)cc1` returned a photoluminescence quantum yield (in O=P(c1ccccc1)(c1ccccc1)c1ccc2oc3ccc(P(=O)(c4ccccc4)c4ccccc4)cc3c2c1) of 0.68. `N#Cc1ccc(/C=C2\N=C(c3ccccc3)NC2=O)cc1`: the photoluminescence quantum yield (in C1COCCO1) is 0.158. `COc1cccc(C2=C3C=C(/C=C/C(=O)OC(C)(C)C)C=[N+]3[B-](F)(F)n3cccc32)c1` came in with a photoluminescence quantum yield (in ClCCl) of 0.09. On to `O=c1oc2ccccc2cc1-c1cn2ccccc2n1`, for which the photoluminescence quantum yield (in ClC(Cl)Cl) was found to be 0.15. In turn, `CC(C)[Si](C#Cc1c2nsnc2c(C#C[Si](C(C)C)(C(C)C)C(C)C)c2nc3c(nc12)C1c2ccccc2C3c2ccccc21)(C(C)C)C(C)C` had a photoluminescence quantum yield (in CCCCCC) of 0.66. Regarding `CCCCCCC(CCCCCC)N1C(=O)c2cccc3c(-c4ccc(OC)cc4)ccc(c23)C1=O`, the photoluminescence quantum yield (in CCCCCC) was 0.65; the photoluminescence quantum yield (in CCCCCCCCCCCCCC) amounted to 0.79; the photoluminescence quantum yield (in CCCCCCCCCCCO) was 0.83; the photoluminescence quantum yield (in CCCCO) was 0.83; the photoluminescence quantum yield (in CN(C)C=O) stood at 0.82; the photoluminescence quantum yield (in Cc1ccccc1) turned out to be 0.75. The same compound showed a photoluminescence quantum yield (in ClC(Cl)Cl) of 0.83. As to `CC1=[N+]2C(=C(c3ccc(N(c4ccccc4)c4ccccc4)cc3)c3ccc(C)n3[B-]2(F)F)C=C1c1cc2n(c1)[B-](F)(F)[N+]1=CC=CC1=C2c1c(C)cc(C)cc1C`, the photoluminescence quantum yield runs as follows: (in C1CCCCC1) 0.37; (in CCOC(C)=O) 0.1. For `COc1ccc(-c2csc(/C(C#N)=N\Nc3ccc(C#N)cc3)n2)cc1`, the photoluminescence quantum yield is, setting by setting: (in CC#N) 0.001; (in CCO) 0.002; (in CN(C)C=O) 0; (in Cc1ccccc1) 0.002; (in ClCCl) 0.002. For the setting “in ClCCl”, `C(#Cc1ncc(-c2ccccc2)o1)c1cccnc1` gave a photoluminescence quantum yield of 0.13.

In the case of `CCCCn1c(-c2ccc(-c3nnc(-c4ccccc4)o3)cc2)nc2c3ccccc3c3ccccc3c21`, the photoluminescence quantum yield (in ClCCl) amounted to 0.61. `COc1ccc2c(c1)[n+]([O-])nc(N)[n+]2[O-]`: the photoluminescence quantum yield was 0.0227 (in CC#N) and 0.0124 (in O). With `Cc1ccc(C)n1-c1cccc(C#N)c1`, the photoluminescence quantum yield is 0.006 (in C1CCOC1); 0.004 (in CCCCCC); 0.004 (in CCCCCl); 0.006 (in CCOCC); 0.003 (in ClCCl). As for `COc1ccc(/C=C/C(F)(F)F)c(N)c1`, the photoluminescence quantum yield (in C1CCOC1) is 0.32. The compound `CCC12N=N[C@](CC)(C3C4CCC(C4)C31)C1[C@@H]3CC[C@@H](C3)[C@H]12` (stereo partly drawn) had a photoluminescence quantum yield (in CC#N) of 0.19. For `N#Cc1cc(C#Cc2c(F)c(F)nc(F)c2F)c(C#Cc2c(F)c(F)nc(F)c2F)cc1C#N`, under “in CC#N”, the photoluminescence quantum yield amounted to 0.49.

For the setting “in ClC(Cl)Cl”, `CCOC(CN1C(=O)C2=C(c3ccc(OC)c(OC)c3)N(CC(OCC)OCC)C(=O)C2=C1c1ccc(OC)c(OC)c1)OCC` gave a photoluminescence quantum yield of 0.9. Regarding `CCN(CC)c1ccc2c(-c3ccccc3C(=O)O)c3c([o+]c2c1)/C(=C/c1nc(-c2ccccc2)n2ccccc12)CCC3`, the photoluminescence quantum yield (in ClCCl) is 0.4. On to `c1ccc(-c2ccc(-c3nc(-c4ccccc4)c(N(c4ccccc4)c4ccccc4)[se]3)cc2)cc1`, for which the photoluminescence quantum yield (in ClC(Cl)Cl) worked out at 0.159.

`O=C(O)c1cc2c(cc3ccc4cccc5ccc2c3c45)[nH]1` had a photoluminescence quantum yield (in CCOC(C)=O) of 0.82.

For the setting “in ClC(Cl)Cl”, `CCc1cc(CC)cc(-n2c3ccccc3c3cc4c(cc32)c2ccccc2n4-c2cc(CC)cc(CC)c2)c1` yielded a photoluminescence quantum yield of 0.14.

As for `Cc1cc(=O)oc2cc3c4ccccc4c4ccccc4c3cc12`, the photoluminescence quantum yield is, setting by setting: (in CO) 0.09; (in ClC(Cl)Cl) 0.12. For `COc1ccc(-c2nc(-c3ccc(C#N)cc3)[nH]c2-c2ccc(OC)cc2)cc1`, the photoluminescence quantum yield (in CO) was found to be 0.6. `CC1=[N+]2C(=C(c3ccccc3)c3c4c(c(C)n3[B-]2(F)F)C2CCC4CC2)C2=C1C1CCC2CC1` had a photoluminescence quantum yield (in CC#N) of 0.81. `Fc1ccc(-c2ccc(-c3cc(-c4ccccn4)nc(-c4ccccn4)c3)cc2)c(F)c1` returned a photoluminescence quantum yield (in ClCCl) of 0.16. Take `COc1cc2c3cc(OC)c(OC)cc3c3cc4c(C)cc(=O)oc4cc3c2cc1OC`: the photoluminescence quantum yield by setting is: (in CO) 0.02; (in CS(C)=O) 0.056; (in ClC(Cl)Cl) 0.08. For `Fc1ccc2sc3nc(-c4ccccc4)sc3c2c1`, the photoluminescence quantum yield (in CS(C)=O) turned out to be 0.91.

Take `CCc1ccc(-c2nc(-c3ccc(-n4c5ccccc5c5ccccc54)cc3)cc(-c3ccc(-n4c5ccccc5c5ccccc54)cc3)n2)cc1`: the photoluminescence quantum yield by setting is: (in C1CCOC1) 0.6; (in CN(C)C=O) 0.74; (in Cc1ccccc1) 0.71; (in ClC(Cl)Cl) 0.58. Where the note is “in CCCCCC”, `COc1ccc2c(c1)N(c1ccccc1-c1ccccc1)c1cc3c(cc1=N2)Oc1c(cc(C(C)(C)C)cc1C(C)(C)C)N=3` registered a photoluminescence quantum yield of 0.34. Regarding `CC1=NN(c2cccc3ccccc23)[B-](F)(F)[n+]2ccccc21`, the photoluminescence quantum yield (in ClCCl) was 0.07. Where the note is “in ClCCl”, `COc1ccc(-c2c3cc4ccccc4cc3c(C#Cc3ccccc3)c3cc4ccccc4cc23)cc1` returned a photoluminescence quantum yield of 0.02.

For the compound `F[B-]1(F)n2c(c3ccccc3c2-c2ccccc2)C=C2c3ccccc3C(c3ccccc3)=[N+]21`, the photoluminescence quantum yield was 0.57 (in C1CCOC1) and 0.88 (in ClCCl). On to `COC(=O)c1cc(=O)n(C)c2cc(-c3ccc(N(C)C)cc3)sc12`, for which the photoluminescence quantum yield turned out to be 0.08 (in CC#N) and 0.82 (in ClCCl). Take `O=C1c2ccccc2-c2ccccc21`: the photoluminescence quantum yield by setting is: (in C1CCCCC1) 0.0004; (in CC#N) 0.027; (in CCO) 0.0009; (in c1ccccc1) 0.0078. For `CN(C)c1ccc(/C=C/c2ccncn2)cc1`, under “in ClCCl”, the photoluminescence quantum yield was found to be 0.15. Still for that read-out and setting: under `CN(c1ccccc1)c1ccc(N(c2ccccc2)c2ccc3ccc4c(N(c5ccccc5)c5ccc(N(C)c6ccccc6)cc5)ccc5ccc2c3c54)cc1` stands 0.01. Still for that read-out and setting: the result for `F[B-]1(F)Oc2ccc(Br)cc2-c2c3c(c4c([n+]21)CCc1ccccc1-4)CCc1ccccc1-3` reads 0.23. Take `CC(C)CCCN1c2ccccc2CCc2ccccc21`: the photoluminescence quantum yield (in CC#N) worked out at 0.029 and the photoluminescence quantum yield (in CO) was determined as 0.021.

For `CN(C)c1cccc(/C=C/c2ncc(-c3ccc(OCc4ccccc4)c(OCc4ccccc4)c3)o2)c1`, the photoluminescence quantum yield (in ClCCl) came out at 0.37. `O=c1c2cc(Cl)ccc2nc2n1[B-](F)(F)[n+]1ccccc1-2` yielded a photoluminescence quantum yield (in CC#N) of 0.89 and a photoluminescence quantum yield (in ClCCl) of 0.99.

Regarding `CCC1(CC)c2ccccc2-c2c1c1c(c3c2C(CC)(CC)c2cc(/C=C/c4cccs4)ccc2-3)C(CC)(CC)c2cc(/C=C/c3cccs3)ccc2-1`, the photoluminescence quantum yield (in C1CCOC1) is 0.16. On to `N#Cc1cc2nc3c(nc2cc1C#N)C1c2ccc(N(c4ccccc4)c4ccccc4)cc2C3c2ccc(N(c3ccccc3)c3ccccc3)cc21`, for which the photoluminescence quantum yield runs as follows: (in C1CCCCC1) 0.44; (in CC#N) 0.01; (in Cc1ccccc1) 0.35; (in ClCCl) 0.02. Where the note is “in ClCCl”, `CC(C)c1cccc(C(C)C)c1N1C(=O)c2cccc3c(Oc4ccc(C(C)(C)c5ccccc5)cc4)ccc(c23)C1=O` showed a photoluminescence quantum yield of 0.11. `C/C=C/c1ccc(OC)cc1`: the photoluminescence quantum yield runs as follows: (in CC#N) 0.27; (in CCCCCC) 0.35.

Where the note is “in ClCCl”, `CCn1c2c(-c3cccs3)cc(C(C)(C)C)cc2c2cc(C(C)(C)C)cc(-c3cccs3)c21` displayed a photoluminescence quantum yield of 0.064. In the case of `COC(=O)c1cc(=O)n(C)c2cc(-c3ccccc3OC)sc12`, the photoluminescence quantum yield by setting is: (in CC#N) 0.61; (in ClCCl) 0.51.

On to `COc1cc2c3c4c(c5ccc(C(C)(C)C)cc5c5c(OC)cc(OC)c(c2c(OC)c1OC)c45)=[N+]1C3=Nc2c3c4cc(OC)c(OC)c(OC)c4c4c(OC)cc(OC)c5c6cc(C(C)(C)C)ccc6c(c3c54)n2[B-]1(F)F`, for which the photoluminescence quantum yield (in Cc1ccccc1) turned out to be 0.13. Still for that read-out and setting: the result for `Fc1c(F)c(-n2c3ccccc3c3ccccc32)c(F)c(F)c1/C=C/C(=C(c1ccccc1)c1ccccc1)c1ccccc1` reads 0.001. As for `CCN(CC)c1ccc2cc3ccc(=[N+](CC)CC)cc-3oc2c1`, the photoluminescence quantum yield was determined as 0.85 (in CC#N), 0.95 (in CCO), 0.74 (in CN(C)C=O) and 0.94 (in O). As for `C[Si]1(C)O[Si](C)(C)c2cc3c(-c4ccccc4)c4cc([N+](=O)[O-])ccc4nc3cc21`, the photoluminescence quantum yield (in ClCCl) worked out at 0.3.
